System: Cholesterol Biosynthesis Genes in the Mouse Liver
Assay: Microarray expression of cholesterol biosynthesis genes in mouse liver
Type: in vivo
Conditions: 10 mg/kg oral
Protocol: A number of PHI compounds were evaluated for their effect on the expression of cholesterol biosynthesis genes in mouse liver. […] Liver tissue was harvested and stored in RNALater (Life Technologies). Total RNA was isolated with Trizol (Life Technologies) and purified with RNEasy96 (Qiagen) according to the manufacturers' protocols. RNA concentration was measured by NanoDrop (Thermo), and quality was assessed by Bioanalyzer (Agilent).
Biotinylated microarray probe was prepared using the 3′IVT Express kit (Affymetrix) and hybridized to mouse 430A 2.0 arrays as recommended in the manufacturer's protocol. Arrays were stained, washed, and scanned using Affymetrix equipment and software. Three arrays were run for each treatment and time point, each representing the liver sample from one individual animal.
Animals were sacrificed 4 h or 8 h later. Each compound was tested in a separate animal study with separate controls. Liver tissue was harvested and stored in RNALater (Life Technologies). Total RNA was isolated with Trizol (Life Technologies) and purified with RNEasy96 (Qiagen) according to the manufacturers' protocols. RNA concentration was measured by NanoDrop (Thermo), and quality was assessed by Bioanalyzer (Agilent).
For microarray analysis, RNA from animals in each treatment group was pooled in pairs (n=3 pairs for 4 h vehicle, n=2 pairs for all other treatment groups, for a total of 13 arrays per compound study). This approach was used to improve the signal-to-noise ratio on microarrays. Biotinylated probe was prepared using the One-Cycle cDNA synthesis kit (Affymetrix) and hybridized to mouse 430A 2.0 arrays as recommended in the manufacturer's protocol. Arrays were stained, washed, and scanned using Affymetrix equipment and software.
Array quality was assessed with GeneChip Operating System and/or Command Console software (Affymetrix). CEL files were uploaded to GeneSpring 7.3.1 (Agilent) using GC-RMA baseline correction. Principal Components Analysis was used to identify and reject outlier arrays. Data are reported as fold-change compared to timepoint-matched vehicle controls from the same study. Values less than 1.0 indicate a reduction of RNA in the treated animal liver tissue.

## Cc1cccc(C)c1Oc1ccc2c(O)c(C(=O)NCC(=O)O)nc(C#N)c2c1 [Compound I, {[1-Cyano-7-(2,6-dimethyl-phenoxy)-4-hydroxy-isoquinoline-3-carbonyl]-amino}-acetic acid]
4 h
  3-hydroxy-3-methylglutaryl-Coenzyme A reductase (Hmgcr) RNA expression: 0.41 fold-change
  3-hydroxy-3-methylglutaryl-Coenzyme A synthase 1 (Hmgcs1) RNA expression: 1.43 fold-change
  7-dehydrocholesterol reductase (Dhcr7) RNA expression: 1.41 fold-change
  NAD(P) dependent steroid dehydrogenase-like (Nsdhl) RNA expression: 1.66 fold-change
  acetyl-Coenzyme A acetyltransferase 2 (Acat2) RNA expression: 1.21 fold-change
  cytochrome P450, family 51 (Cyp51) RNA expression: 0.81 fold-change
  farnesyl diphosphate farnesyl transferase 1 (Fdft1) RNA expression: 0.85 fold-change
  farnesyl diphosphate synthetase (Fdps) RNA expression: 1.45 fold-change
  isopentenyl-diphosphate delta isomerase (Idi1) RNA expression: 1.40 fold-change
  lanosterol synthase (Lss) RNA expression: 0.74 fold-change
  mevalonate (diphospho) decarboxylase (Mvd) RNA expression: 0.45 fold-change
  mevalonate kinase (Mvk) RNA expression: 1.02 fold-change
  phosphomevalonate kinase (Pmvk) RNA expression: 1.25 fold-change
  squalene epoxidase (Sqle) RNA expression: 1.36 fold-change
  sterol-C4-methyl oxidase-like (Sc4mol) RNA expression: 0.88 fold-change
  sterol-C5-desaturase (fungal ERG3, delta-5-desaturase) homolog (S. cerevisae) (Sc5d) RNA expression: 0.87 fold-change
8 h
  3-hydroxy-3-methylglutaryl-Coenzyme A reductase (Hmgcr) RNA expression: 0.17 fold-change
  3-hydroxy-3-methylglutaryl-Coenzyme A synthase 1 (Hmgcs1) RNA expression: 0.19 fold-change
  7-dehydrocholesterol reductase (Dhcr7) RNA expression: 0.30 fold-change
  NAD(P) dependent steroid dehydrogenase-like (Nsdhl) RNA expression: 0.21 fold-change
  acetyl-Coenzyme A acetyltransferase 2 (Acat2) RNA expression: 0.43 fold-change
  cytochrome P450, family 51 (Cyp51) RNA expression: 0.12 fold-change
  farnesyl diphosphate farnesyl transferase 1 (Fdft1) RNA expression: 0.32 fold-change
  farnesyl diphosphate synthetase (Fdps) RNA expression: 0.16 fold-change
  isopentenyl-diphosphate delta isomerase (Idi1) RNA expression: 0.12 fold-change
  lanosterol synthase (Lss) RNA expression: 0.28 fold-change
  mevalonate (diphospho) decarboxylase (Mvd) RNA expression: 0.19 fold-change
  mevalonate kinase (Mvk) RNA expression: 0.37 fold-change
  phosphomevalonate kinase (Pmvk) RNA expression: 0.41 fold-change
  squalene epoxidase (Sqle) RNA expression: 0.16 fold-change
  sterol-C4-methyl oxidase-like (Sc4mol) RNA expression: 0.11 fold-change
  sterol-C5-desaturase (fungal ERG3, delta-5-desaturase) homolog (S. cerevisae) (Sc5d) RNA expression: 0.54 fold-change

## N#Cc1nc(C(=O)NCC(=O)O)c(O)c2ccn(Cc3ccc4ccccc4c3)c12 [Compound J, [(7-Cyano-4-hydroxy-1-naphthalen-2-ylmethyl-1H-pyrrolo[2,3-c]pyridine-5-carbonyl)-amino]-acetic acid]
4 h
  3-hydroxy-3-methylglutaryl-Coenzyme A reductase (Hmgcr) RNA expression: 0.38 fold-change
  3-hydroxy-3-methylglutaryl-Coenzyme A synthase 1 (Hmgcs1) RNA expression: 0.28 fold-change
  7-dehydrocholesterol reductase (Dhcr7) RNA expression: 0.52 fold-change
  NAD(P) dependent steroid dehydrogenase-like (Nsdhl) RNA expression: 0.42 fold-change
  acetyl-Coenzyme A acetyltransferase 2 (Acat2) RNA expression: 0.58 fold-change
  cytochrome P450, family 51 (Cyp51) RNA expression: 0.38 fold-change
  farnesyl diphosphate farnesyl transferase 1 (Fdft1) RNA expression: 0.70 fold-change
  farnesyl diphosphate synthetase (Fdps) RNA expression: 0.38 fold-change
  isopentenyl-diphosphate delta isomerase (Idi1) RNA expression: 0.25 fold-change
  lanosterol synthase (Lss) RNA expression: 0.77 fold-change
  mevalonate (diphospho) decarboxylase (Mvd) RNA expression: 0.72 fold-change
  mevalonate kinase (Mvk) RNA expression: 0.79 fold-change
  phosphomevalonate kinase (Pmvk) RNA expression: 0.59 fold-change
  squalene epoxidase (Sqle) RNA expression: 0.26 fold-change
  sterol-C4-methyl oxidase-like (Sc4mol) RNA expression: 0.27 fold-change
  sterol-C5-desaturase (fungal ERG3, delta-5-desaturase) homolog (S. cerevisae) (Sc5d) RNA expression: 1.22 fold-change
8 h
  3-hydroxy-3-methylglutaryl-Coenzyme A reductase (Hmgcr) RNA expression: 0.43 fold-change
  3-hydroxy-3-methylglutaryl-Coenzyme A synthase 1 (Hmgcs1) RNA expression: 0.92 fold-change
  7-dehydrocholesterol reductase (Dhcr7) RNA expression: 0.94 fold-change
  NAD(P) dependent steroid dehydrogenase-like (Nsdhl) RNA expression: 1.03 fold-change
  acetyl-Coenzyme A acetyltransferase 2 (Acat2) RNA expression: 0.91 fold-change
  cytochrome P450, family 51 (Cyp51) RNA expression: 0.80 fold-change
  farnesyl diphosphate farnesyl transferase 1 (Fdft1) RNA expression: 0.66 fold-change
  farnesyl diphosphate synthetase (Fdps) RNA expression: 0.66 fold-change
  isopentenyl-diphosphate delta isomerase (Idi1) RNA expression: 0.70 fold-change
  lanosterol synthase (Lss) RNA expression: 0.76 fold-change
  mevalonate (diphospho) decarboxylase (Mvd) RNA expression: 0.83 fold-change
  mevalonate kinase (Mvk) RNA expression: 0.79 fold-change
  phosphomevalonate kinase (Pmvk) RNA expression: 0.84 fold-change
  squalene epoxidase (Sqle) RNA expression: 1.03 fold-change
  sterol-C4-methyl oxidase-like (Sc4mol) RNA expression: 0.52 fold-change
  sterol-C5-desaturase (fungal ERG3, delta-5-desaturase) homolog (S. cerevisae) (Sc5d) RNA expression: 0.81 fold-change

From patent US20150018384A1, “TREATMENT FOR HIGH CHOLESTEROL” (FibroGen, Inc., priority 2012, published 2015)
